Experiments:
Caspase-8 (Homo sapiens) = Caspase-8 (Homo sapiens) (UniProt Q14790); assay: Binding affinity against Caspase-8
Caspase-3 (Homo sapiens) = target: T1, Caspase-3 (Homo sapiens) (UniProt P42574); assay: Binding affinity against Caspase-3
T1 sequence (whole entry): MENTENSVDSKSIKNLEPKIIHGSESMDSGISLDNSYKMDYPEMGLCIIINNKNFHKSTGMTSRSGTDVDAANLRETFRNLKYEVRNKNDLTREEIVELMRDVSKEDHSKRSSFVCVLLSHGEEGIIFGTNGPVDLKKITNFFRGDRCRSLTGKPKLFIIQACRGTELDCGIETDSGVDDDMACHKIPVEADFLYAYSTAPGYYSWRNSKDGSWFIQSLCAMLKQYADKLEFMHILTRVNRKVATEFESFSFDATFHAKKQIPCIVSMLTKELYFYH

Caspase-6 (Homo sapiens) = target: T2, Caspase-6 (Homo sapiens) (UniProt P55212); assay: Binding affinity against Caspase-6
T2 sequence (whole entry): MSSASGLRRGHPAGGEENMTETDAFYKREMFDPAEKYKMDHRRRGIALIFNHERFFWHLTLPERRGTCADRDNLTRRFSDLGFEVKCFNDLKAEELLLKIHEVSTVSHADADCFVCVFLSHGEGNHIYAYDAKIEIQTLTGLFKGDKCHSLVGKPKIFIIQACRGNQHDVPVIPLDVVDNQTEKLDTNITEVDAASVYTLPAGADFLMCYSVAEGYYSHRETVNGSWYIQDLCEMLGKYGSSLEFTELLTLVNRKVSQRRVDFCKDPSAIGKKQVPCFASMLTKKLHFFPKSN

Caspase-1 (Mus musculus) = target: T3, Caspase-1 (Mus musculus) (UniProt P29452); assay: Binding affinity against mouse Caspase-1
T3 sequence (whole entry): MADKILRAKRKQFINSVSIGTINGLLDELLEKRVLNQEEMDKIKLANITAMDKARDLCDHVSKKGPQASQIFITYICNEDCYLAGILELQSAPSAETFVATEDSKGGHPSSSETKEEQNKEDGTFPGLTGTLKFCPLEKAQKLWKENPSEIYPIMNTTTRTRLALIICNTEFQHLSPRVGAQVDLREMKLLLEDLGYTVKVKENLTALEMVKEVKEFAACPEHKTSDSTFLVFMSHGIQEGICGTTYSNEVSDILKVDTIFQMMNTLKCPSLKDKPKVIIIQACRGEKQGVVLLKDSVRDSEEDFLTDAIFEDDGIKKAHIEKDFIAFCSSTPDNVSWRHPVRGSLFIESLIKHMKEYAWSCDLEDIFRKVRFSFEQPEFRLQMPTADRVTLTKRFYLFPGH

Jurkat = assay: Inhibitory concentration for cellular activity in jurkat assay; assay type: functional, cell-based; conditions: Homo sapiens

Chain of Caspase-8 (Homo sapiens) (Q14790 217-374 limits assumed): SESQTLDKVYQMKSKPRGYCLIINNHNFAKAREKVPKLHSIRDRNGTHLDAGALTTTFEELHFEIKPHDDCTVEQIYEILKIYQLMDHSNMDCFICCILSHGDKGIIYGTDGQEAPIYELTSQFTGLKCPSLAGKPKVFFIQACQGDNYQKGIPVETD
Chain of Caspase-8 (Homo sapiens) (Q14790 385-479 limits assumed): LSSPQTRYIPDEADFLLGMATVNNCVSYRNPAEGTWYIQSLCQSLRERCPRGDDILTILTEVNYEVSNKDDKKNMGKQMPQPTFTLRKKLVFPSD

| Structure (SMILES) | k3/ki (Caspase-8 (Homo sapiens)) | k3/ki (Caspase-3 (Homo sapiens)) | k3/ki (Caspase-6 (Homo sapiens)) | k3/ki (Caspase-1 (Mus musculus)) | IC50 (Jurkat) [µM] |
| --- | --- | --- | --- | --- | --- |
| CC(C)[C@H](NC(=O)COc1cccc2ccccc12)C(=O)N[C@@H](CC(=O)O)C(=O)COn1nnc2ccccc2c1=O | 18200 1/m/s | 169000 1/m/s | 44000 1/m/s | 45400 1/m/s | 137 |
| CC(C)[C@H](NC(=O)COc1cccc2ccccc12)C(=O)N[C@@H](CC(=O)O)C(=O)COc1cc2ccccc2cn1 | 8 1/m/s | 3350 1/m/s | 96 1/m/s | 693 1/m/s | > 200 |
| CC(C)[C@H](NC(=O)COc1cccc2ccccc12)C(=O)N[C@@H](CC(=O)O)C(=O)CSc1nc(-c2ccccc2)no1 | 3060 1/m/s | 38100 1/m/s | 975 1/m/s | 1190 1/m/s | 102 |
| CC(C)[C@H](NC(=O)COc1cccc2ccccc12)C(=O)N[C@@H](CC(=O)O)C(=O)CSc1ncc[nH]1 | 0 1/m/s | 850 1/m/s | 22 1/m/s | 173 1/m/s | > 200 |
| CC(C)[C@H](NC(=O)COc1cccc2ccccc12)C(=O)N[C@@H](CC(=O)O)C(=O)CSc1nc2ccccc2o1 | 0 1/m/s | 0 1/m/s | – | 0 1/m/s | > 200 |
| CC(C)c1cc(OCC(=O)[C@H](CC(=O)O)NC(=O)[C@@H](NC(=O)COc2cccc3ccccc23)C(C)C)no1 | 279 1/m/s | 21800 1/m/s | 220 1/m/s | 3670 1/m/s | > 200 |
| CC(C)[C@H](NC(=O)COc1cccc2ccccc12)C(=O)N[C@@H](CC(=O)O)C(=O)COc1ccnc(C(F)(F)F)n1 | 3200 1/m/s | 114000 1/m/s | 5150 1/m/s | 24800 1/m/s | 37 |
| CC(C)[C@H](NC(=O)COc1cccc2ccccc12)C(=O)N[C@@H](CC(=O)O)C(=O)CSc1nc(-c2ccccc2)cs1 | 0 1/m/s | 2730 1/m/s | 0 1/m/s | 217 1/m/s | > 200 |
| CC(C)[C@H](NC(=O)COc1cccc2ccccc12)C(=O)N[C@@H](CC(=O)O)C(=O)COc1[nH]cnc2nncc1-2 | 107 1/m/s | 906 1/m/s | 143 1/m/s | 273 1/m/s | 161 |
| CC(C)[C@H](NC(=O)COc1cccc2ccccc12)C(=O)N[C@@H](CC(=O)O)C(=O)CSc1nncn1C | 293 1/m/s | 2260 1/m/s | 221 1/m/s | 180 1/m/s | > 200 |
| CC(C)[C@H](NC(=O)COc1cccc2ccccc12)C(=O)N[C@@H](CC(=O)O)C(=O)CSc1nccc(C(F)(F)F)n1 | 0 1/m/s | 0 1/m/s | 0 1/m/s | 0 1/m/s | > 200 |
| CC(C)[C@H](NC(=O)COc1cccc2ccccc12)C(=O)N[C@@H](CC(=O)O)C(=O)CSc1nnnn1C | 6510 1/m/s | 34400 1/m/s | 2150 1/m/s | 3630 1/m/s | > 200 |
| Cc1nnc(SCC(=O)[C@H](CC(=O)O)NC(=O)[C@@H](NC(=O)COc2cccc3ccccc23)C(C)C)s1 | 0 1/m/s | 5240 1/m/s | 83 1/m/s | 5480 1/m/s | 190 |
| CC(C)[C@H](NC(=O)COc1cccc2ccccc12)C(=O)N[C@@H](CC(=O)O)C(=O)CSC1=NCCS1 | 231 1/m/s | 2300 1/m/s | 228 1/m/s | 186 1/m/s | > 200 |
| CC(C)[C@H](NC(=O)COc1cccc2ccccc12)C(=O)N[C@@H](CC(=O)O)C(=O)COc1nncc(Cl)c1Cl | 0 1/m/s | 1760 1/m/s | 8 1/m/s | 152 1/m/s | > 200 |
| CC(C)[C@H](NC(=O)COc1cccc2ccccc12)C(=O)N[C@@H](CC(=O)O)C(=O)CSc1nc[nH]n1 | 0 1/m/s | 401 1/m/s | 17 1/m/s | 115 1/m/s | > 200 |
| CC(C)[C@H](NC(=O)COc1cccc2ccccc12)C(=O)N[C@@H](CC(=O)O)C(=O)COc1nc2ccccc2[nH]1 | 2 1/m/s | 958 1/m/s | 0 1/m/s | 41 1/m/s | > 200 |
| CC(C)[C@H](NC(=O)COc1cccc2ccccc12)C(=O)N[C@@H](CC(=O)O)C(=O)COc1cc(C(F)(F)F)nn1-c1ccccc1 | 2270 1/m/s | 71100 1/m/s | 23900 1/m/s | 7570 1/m/s | 28 |

Reference: ChEMBL document CHEMBL1144434, “Structure-activity relationships within a series of caspase inhibitors. Part 2: Heterocyclic warheads” (Bioorg Med Chem Lett, 2005)
